Assay results from patent US12544395B2, “Combination compositions comprising a beta-lactamase inhibitor and uses thereof” (priority 2018, dated 2026).
≈ marks a conversion by molar mass, not a printed value. Where “and” joins values, the source holds several entries; their conditions need not be identical. Equal values may be shown once.

Legend:
[1] = system: ESBL-expressing Enterobacteriaceae (n = 33); experiment: Broth microdilution MIC, ceftibuten/Compound 2 vs IV comparators; assay type: cell-based
[2] = system: KPC-expressing Enterobacteriaceae (n = 77); experiment: organism not typed; assay type: cell-based
[3] = system: AmpC/CMY-expressing Enterobacteriaceae (n = 44); experiment: Broth microdilution MIC, ceftibuten/Compound 2 vs IV comparators; assay type: cell-based
[4] = system: OXA-48-expressing Enterobacteriaceae (n = 39); experiment: as above

C[C@@H](O)[C@H]1C(=O)N2C(C(=O)O)=C(S[C@@H]3CN[C@H](C(=O)N(C)C)C3)[C@H](C)[C@H]12 [Meropenem]
Number of strains at MIC value 0.5 mg/L ([1]; ESBL-expressing (n = 33)): 0 | Number of strains at MIC value 1 mg/L ([1]; ESBL-expressing (n = 33)): 1 | Number of strains at MIC value 2 mg/L ([1]; ESBL-expressing (n = 33)): 1 | Number of strains at MIC value 4 mg/L ([1]; ESBL-expressing (n = 33)): 0 | Number of strains at MIC value 8 mg/L ([1]; ESBL-expressing (n = 33)): 1 | Number of strains at MIC value 16 mg/L ([1]; ESBL-expressing (n = 33)): 0 | Number of strains at MIC value […] ([1]; ESBL-expressing (n = 33)): 1 and 0 | Number of strains at MIC value ≤0.06 mg/L ([1]; ESBL-expressing (n = 33)): 29 | Number of strains at MIC value ≥32 mg/L ([1]; ESBL-expressing (n = 33)): 0 | MIC50 ([1]; iv): ≤ 0.06 µg/mL | MIC90 ([1]; iv): 0.125 µg/mL (≈ 0.326 µM) | Number of strains at MIC value 0.5 mg/L ([2]; KPC-expressing (n = 77)): 1 | Number of strains at MIC value 1 mg/L ([2]; KPC-expressing (n = 77)): 0 | Number of strains at MIC value 2 mg/L ([2]; KPC-expressing (n = 77)): 3 | Number of strains at MIC value 4 mg/L ([2]; KPC-expressing (n = 77)): 4 | Number of strains at MIC value 8 mg/L ([2]; KPC-expressing (n = 77)): 11 | Number of strains at MIC value 16 mg/L ([2]; KPC-expressing (n = 77)): 13 | Number of strains at MIC value […] ([2]; KPC-expressing (n = 77)): 0 | Number of strains at MIC value ≤0.06 mg/L ([2]; KPC-expressing (n = 77)): 1 | Number of strains at MIC value ≥32 mg/L ([2]; KPC-expressing (n = 77)): 44 | MIC50 ([2]; iv): ≥ 32 µg/mL | MIC90 ([2]; iv): ≥ 32 µg/mL | Number of strains at MIC value 0.5 mg/L ([3]; AmpC/CMY-expressing (n = 44)): 2 | Number of strains at MIC value 1 mg/L ([3]; AmpC/CMY-expressing (n = 44)): 1 | Number of strains at MIC value 2 mg/L ([3]; AmpC/CMY-expressing (n = 44)): 0 | Number of strains at MIC value 4 mg/L ([3]; AmpC/CMY-expressing (n = 44)): 3 | Number of strains at MIC value 8 mg/L ([3]; AmpC/CMY-expressing (n = 44)): 0 | Number of strains at MIC value 16 mg/L ([3]; AmpC/CMY-expressing (n = 44)): 0 | Number of strains at MIC value […] ([3]; AmpC/CMY-expressing (n = 44)): 2 | Number of strains at MIC value ≤0.06 mg/L ([3]; AmpC/CMY-expressing (n = 44)): 34 | Number of strains at MIC value ≥32 mg/L ([3]; AmpC/CMY-expressing (n = 44)): 0 | MIC50 ([3]; iv): ≤ 0.06 µg/mL | MIC90 ([3]; iv): 0.5 µg/mL (≈ 1.3 µM) | MIC50 [4]: 2 µg/mL (≈ 5.22 µM) | MIC90 [4]: 8 µg/mL (≈ 20.9 µM)
